Data reported in patent US20220154242A1, “METHOD FOR MODIFYING SUBSTRATE SPECIFICITY OF GLUCOSE DEHYDROGENASE AND AGENT FOR MODIFYING SUBSTRATE SPECIFICITY OF GLUCOSE DEHYDROGENASE” (KIKKOMAN CORPORATION, priority 2019, published 2022).
Values belong to the compound of their own block, whether it stands above or below them.

Assays:
Wild type MpGDH [1] = assay: Maltose/glucose response current ratio, IPPD/MpGDH-immobilized screen-printed electrode (chronoamperometry); assay type: biochemical, Mucor prainii; details: for Relative value (%) of Maltose/Glucose / Maltose/Glucose (%): 5 mM additive, immobilized wild type MpGDH; for Relative value (%) of Maltose/Glucose: no modifier = 100%; for Maltose/Glucose (%): 1 mM maltose, 1 mM glucose, +250 mV; for Modification of substrate specificity: immobilized MpGDH
Description: (§1) The ratio (Mal/Glu) of the reactivity of the glucose dehydrogenase to maltose (Mal) relative to the reactivity thereof to glucose (Glu) can be determined by the following procedures. Onto a printed carbon electrode, N-isopropyl-N′-phenyl-p-phenylenediamine (IPPD) is immobilized by adsorption and a glucose dehydrogenase is immobilized by cross-linking using glutaraldehyde, wherein the glucose dehydrogenase is, for example, a glucose dehydrogenase from a microorganism of the genus Mucor or a glucose dehydrogenase from a microorganism of the genus Aspergillus. Chronoamperometry is performed by using a three-electrode system composed of a working electrode, a counter electrode, and a reference electrode and applying a potential of +250 mV (Ag/AgCl). Once the current value has become sufficiently constant, maltose is added to a final concentration of 1 mM in phosphate-buffered saline (PBS) (for example, maltose is added 100 seconds after the start of measurement). Next, once the current value has become sufficiently constant again after the addition of maltose, glucose is added to a final concentration of 1 mM in phosphate-buffered saline (PBS) (for example, glucose is added 100 seconds after the addition of maltose). The substrate specificity of glucose dehydrogenase can be evaluated by measuring the reactivity thereof to maltose when the reactivity thereof to glucose is considered as 100%. In the present specification, the ratio of the reactivity to maltose (Mal) relative to the reactivity to glucose (Glu) may be denoted as Mal/Glu. When the reactivity is evaluated based on the response current(s), the ratio of the reactivity may be expressed as the ratio of the response current(s).
(§2) 10 μL of 12 mg/ml MpGDH purified preparation, 10 μL of 15 mM each glucose analog, and 10 μL of 20 mM potassium phosphate buffer were mixed and allowed to stand for 2 hours or longer. N-isopropyl-N′-phenyl-p-phenylenediamine (IPPD) was immobilized by adsorption onto screen-printed electrodes (manufactured by DropSens, Product number: DRP-C110) and 12 μg of each MpGDH was applied to the electrodes and allowed to dry at room temperature. Lastly, the electrodes were placed in 25% glutaraldehyde vapor and the resulting electrodes were washed with pure water to obtain IPPD.MpGDH-immobilized electrodes. Next, the electrode was connected to an ALS electrochemical analyzer 814D via a dedicated connector (DRP-CAC). Then, the IPPD.GDH-immobilized electrode, an Ag/AgCl reference electrode, and a platinum counter electrode were immersed in PBS and chronoamperometric measurement was carried out. The applied voltage was set to +250 mV (Ag/AgCl). Once the current value had become sufficiently constant (about 100 seconds after the start of measurement), maltose was added to a final concentration of 1 mM in PBS. Next, subsequently to the addition of the maltose solution, once the current value had become sufficiently constant again (about 100 seconds after the addition of maltose), a glucose solution was added to a final concentration of 1 mM. The difference in the response current before and after the addition of maltose was recorded as the response current value of maltose, and the difference in the response current before and after the addition of glucose was recorded as the response current value of glucose. The value calculated by dividing the response current value of maltose by the response current value of glucose was expressed as maltose/glucose (%). […] Furthermore, when the maltose/glucose of MpGDH in the absence of a substrate specificity modifier is considered as 100%, the value in the presence of D-glucal became 69%, and the substrate specificity was modified.

[2] = test system: GLD1 (glucose dehydrogenase (FAD-dependent), BBI Solutions); assay: Maltose/glucose response current ratio, IPPD/GLD1-immobilized screen-printed electrode (chronoamperometry); assay type: biochemical, Aspergillus; details: for Maltose/Glucose (%) / Relative value (%) of Maltose/Glucose: 5 mM additive; for Maltose/Glucose (%): 1 mM maltose, 1 mM glucose; for Relative value (%) of Maltose/Glucose: no modifier = 100%
Description: as §1, §2
In the same manner, glucose dehydrogenase (FAD-dependent) (from BBI Solutions, Product Code: GLD1, hereinafter denoted as GLD1) was used to examine the effect of the substrate specificity modifier.

MrdGDH [3] = assay: Maltose/glucose response current ratio, IPPD/MrdGDH-immobilized screen-printed electrode (chronoamperometry); assay type: biochemical, Mucor RD056860; details: for Maltose/Glucose (%) / Relative value (%) of Maltose/Glucose: 5 mM additive; for Maltose/Glucose (%): 1 mM maltose, 1 mM glucose; for Relative value (%) of Maltose/Glucose: no modifier = 100%
Description: as §1, §2
(§3) In the same manner, MrdGDH was used to examine the effect of the substrate specificity modifier.

[4] = test system: GLD1 (glucose dehydrogenase (FAD-dependent), BBI Solutions); assay: Maltose/glucose response current ratio, unimmobilized GLD1 with mPMS (chronoamperometry); assay type: biochemical, Aspergillus; details: for Maltose/Glucose (%) / Relative value (%) of Maltose/Glucose: 5 mM additive; for Maltose/Glucose (%): mPMS; for Relative value (%) of Maltose/Glucose: no modifier = 100%
Method: (§4) 10 μL of 12 mg/ml MpGDH purified preparation, 10 μL of 15 mM each glucose analog, and 10 μL of 20 mM potassium phosphate buffer were mixed and allowed to stand for 2 hours or longer. Onto screen-printed electrodes (manufactured by DropSens, Product number: DRP-C110), 80 μL of PBS, 5 μL of each MpGDH solution, and 10 μL of 2 mg/ml mPMS solution were applied and mixed. Chronoamperometric measurement was carried out at an applied voltage of +100 mV (Ag/Ag+). Once the current value had become sufficiently constant (about 100 seconds after the start of measurement), a maltose solution was added to a final concentration of 5 mM and mixed by pipetting up and down. Measurement was stopped once the current value had become sufficiently constant. The difference in the response current before and after the addition of maltose was regarded as the response current value of maltose. In contrast, when an equivalent amount of pure water was added instead of the maltose solution, increase in the response current was not observed. The used printed electrode was thoroughly washed with ultrapure water and dried, and then chronoamperometric measurement was carried out in the same manner as above. A glucose solution was added instead of the maltose solution and the response current value of glucose was measured. The value calculated by dividing the response current value of maltose by the response current value of glucose was expressed as maltose/glucose (%).
In the same manner, GLD1 was used to examine the effect of the substrate specificity modifier.

MpGDH = assay: Maltose/glucose response current ratio, unimmobilized MpGDH with mPMS (chronoamperometry); assay type: biochemical, Mucor prainii; details: unimmobilized MpGDH; mPMS; 5 mM maltose; +100 mV
Method: as §4

MrdGDH [5] = assay: Maltose/glucose response current ratio, unimmobilized MrdGDH with mPMS (chronoamperometry); assay type: biochemical, Mucor RD056860; details: for Maltose/Glucose (%) / Relative value (%) of Maltose/Glucose: 5 mM additive; for Maltose/Glucose (%): mPMS; for Relative value (%) of Maltose/Glucose: no modifier = 100%
Method: as §4, §3

Wild type MpGDH [6] = assay: Maltose/glucose response current ratio, MWCNT/DPPD/MpGDH-immobilized carbon cloth electrode (chronoamperometry); assay type: biochemical, Mucor prainii; details: for Maltose/Glucose Relative value (%): 50 mM additive, wild type MpGDH on carbon cloth electrode, no modifier = 100%; for Modification of substrate specificity of GDH: carbon cloth electrode, MpGDH
Method: The cloth was thoroughly dried and then washed with ultrapure water. Subsequently, 40 mg/ml wild type MpGDH and 20 μl of 100 mM various glucose analogs dissolved in ultrapure water were mixed in equal proportions, and 20 μl of the resulting solution was applied to the […] immobilized electrode. After being allowed to dry at room temperature, the electrode was placed in 25% glutaraldehyde vapor for 20 minutes to immobilize MpGDH by cross-linking. Then, the electrode was subjected to washing with ultrapure water in the same manner as above to obtain an […]-immobilized electrode. Next, this electrode was connected to an ALS electrochemical analyzer […]. Then, the […]-immobilized electrode, an Ag/AgCl reference electrode, and a platinum counter electrode were immersed in PBS, and chronoamperometric measurement was carried out. The applied voltage was set to +250 mV (Ag/AgCl). […] The difference in the response current before and after the addition of maltose was recorded as the response current value of maltose, and the difference in the response current before and after the addition of glucose was recorded as the response current value of glucose. The value calculated by dividing the response current value of maltose by the response current value of glucose was expressed as maltose/glucose (%). […] An […]-immobilized electrode was made in the same manner as Example 4 except that the application step was altered. That is, 20 μl of 40 mg/ml wild type MpGDH was mixed with 10 μl each of 100 mM glycerol and 100 mM L-iditol dissolved in ultrapure water, and 20 μl of the resulting solution was applied to the […] immobilized electrode for the application step. Then, chronoamperometric measurement was carried out according to the method described in Example 4, and the maltose/glucose (%) was calculated.

Compound: OC[C@@H](O)[C@H](O)[C@@H](O)[C@H](O)CO [D-iditol]
- Maltose/Glucose (%) (Wild type MpGDH [1]): 0.1%
- Relative value (%) of Maltose/Glucose (Wild type MpGDH [1]): 22%
- Modification of substrate specificity (Wild type MpGDH [1]): modified the substrate specificity
- Modification of substrate specificity [2]: modified the substrate specificity
- Maltose/Glucose (%) [2]: 0.01%
- Relative value (%) of Maltose/Glucose [2]: 4%
- Modification of substrate specificity (MrdGDH [3]): modified the substrate specificity
- Maltose/Glucose (%) (MrdGDH [3]): 19.3%
- Relative value (%) of Maltose/Glucose (MrdGDH [3]): 83%
- maltose/glucose relative to MpGDH considered as 100% (MpGDH): 84%
- Modification of substrate specificity (MrdGDH [5]): modified the substrate specificity
- Maltose/Glucose (%) (MrdGDH [5]): 21.6%
- Relative value (%) of Maltose/Glucose (MrdGDH [5]): 70%

Compound: OC[C@@H](O)[C@@H](O)[C@H](O)[C@H](O)CO [D-mannitol]
- Maltose/Glucose Relative value (%) (Wild type MpGDH [6]): 3%
- Modification of substrate specificity of GDH (Wild type MpGDH [6]): modified the substrate specificity

Compound: OCC(O)CO [Glycerol, glycerol]
- Maltose/Glucose Relative value (%) (Wild type MpGDH [6]): 29%
- Modification of substrate specificity of GDH (Wild type MpGDH [6]): modified the substrate specificity

Compound: OC[C@@H](O)[C@@H](O)[C@H](O)[C@@H](O)CO [Sorbitol, sorbitol]
- Maltose/Glucose (%) (Wild type MpGDH [1]): 0.2%
- Relative value (%) of Maltose/Glucose (Wild type MpGDH [1]): 43%
- Modification of substrate specificity (Wild type MpGDH [1]): modified the substrate specificity
- Modification of substrate specificity (MrdGDH [3]): modified the substrate specificity
- Maltose/Glucose (%) (MrdGDH [3]): 17%
- Relative value (%) of Maltose/Glucose (MrdGDH [3]): 73%
- maltose/glucose relative to MpGDH considered as 100% (MpGDH): 67%
- Modification of substrate specificity (MrdGDH [5]): modified the substrate specificity
- Maltose/Glucose (%) (MrdGDH [5]): 23%
- Relative value (%) of Maltose/Glucose (MrdGDH [5]): 74%

Compound: OC[C@@H](O)[C@H](O)[C@@H](O)CO [Xylitol, xylitol]
- Maltose/Glucose Relative value (%) (Wild type MpGDH [6]): 21%
- Modification of substrate specificity of GDH (Wild type MpGDH [6]): modified the substrate specificity

Second part, led by results:

- Modification of substrate specificity [2]: modified the substrate specificity
- Maltose/Glucose (%) [2]: 0.09%
- Relative value (%) of Maltose/Glucose [2]: 30%
- Modification of substrate specificity [4]: modified the substrate specificity
- Maltose/Glucose (%) [4]: 0.25%
- Relative value (%) of Maltose/Glucose [4]: 76%
Compound: OC[C@H]1OC=C[C@@H](O)[C@@H]1O [D-glucal]
- Relative value (%) of Maltose/Glucose (Wild type MpGDH [1]): 69%
- Modification of substrate specificity (MrdGDH [3]): modified the substrate specificity
- Maltose/Glucose (%) (MrdGDH [3]): 18.1%
- Relative value (%) of Maltose/Glucose (MrdGDH [3]): 78%

- Modification of substrate specificity [4]: modified the substrate specificity
- Maltose/Glucose (%) [4]: 0.29%
- Relative value (%) of Maltose/Glucose [4]: 88%
Compound: OC[C@@H](O)[C@@H](O)[C@@H](O)CO [Ribitol, ribitol]
- Maltose/Glucose (%) (Wild type MpGDH [1]): 0.08%
- Relative value (%) of Maltose/Glucose (Wild type MpGDH [1]): 17%
- Modification of substrate specificity (Wild type MpGDH [1]): modified the substrate specificity
- maltose/glucose relative to MpGDH considered as 100% (MpGDH): 58%
- Modification of substrate specificity (MrdGDH [5]): modified the substrate specificity
- Maltose/Glucose (%) (MrdGDH [5]): 22%
- Relative value (%) of Maltose/Glucose (MrdGDH [5]): 71%

- Modification of substrate specificity [2]: modified the substrate specificity
- Maltose/Glucose (%) [2]: 0.08%
- Relative value (%) of Maltose/Glucose [2]: 35%
- Modification of substrate specificity [4]: modified the substrate specificity
- Maltose/Glucose (%) [4]: 0.28%
- Relative value (%) of Maltose/Glucose [4]: 85%
Compound: OC[C@H]1O[C@H](O[C@H]2O[C@H](CO)[C@@H](O)[C@H](O)[C@H]2O)[C@H](O)[C@@H](O)[C@@H]1O [Trehalose, trehalose]
- Modification of substrate specificity (MrdGDH [3]): modified the substrate specificity
- Maltose/Glucose (%) (MrdGDH [3]): 14.4%
- Relative value (%) of Maltose/Glucose (MrdGDH [3]): 62%
- maltose/glucose relative to MpGDH considered as 100% (MpGDH): 72%
- Modification of substrate specificity (MrdGDH [5]): modified the substrate specificity
- Maltose/Glucose (%) (MrdGDH [5]): 22%
- Relative value (%) of Maltose/Glucose (MrdGDH [5]): 71%
